Test results published in patent US20210145852A1, “Combination Therapies for Treating Muscular Dystrophy” (Sarepta Therapeutics, Inc., priority 2017, published 2021).
Entries after “also recorded” stand apart in the source; their conditions may differ. Read-outs that look alike come from different tables or passages of the source. {TEG} = triethylene glycol tail moiety

How the values were obtained:
[1] = tested on: Mdx mice; test: Histology (H&E and picrosirius red staining) of quadriceps, PMO and CAT-1004 efficacy study in Mdx mice; format: in vivo, mouse; details: 4 weeks treatment, M23D PMO 40 mg/kg IV weekly or CAT-1004 1% in diet, compared to Mdx mice treated with saline
Source text: Wild-type (WT) (C57BL/10ScSn/J) and Mdx (C57BL/10ScSn-Dmd^mdx/J) mice were used to test the efficacy of the M23D PMO (AVI-4225) in combination with CAT-1004. 5-week old mice were acquired from Jackson Labs and acclimated for one-week. The treatment duration was 4 weeks and began when the mice were 6 weeks of age. Mice were divided into the following five treatment groups, each with N=12: (1) wild-type mice treated with saline, (2) Mdx mice treated with saline, (3) Mdx mice treated with CAT-1004, (4) Mdx mice treated with the M23D PMO, and (5) Mdx mice treated with the M23D PMO in combination with CAT-1004. Mice were dosed weekly with M23D PMO (AVI-4225) at 40 mg/kg by IV injection and treated with CAT-1004 (1%) in their diet. […] Food consumption was closely monitored and the feed was changed twice per week. […]
To assess the effectiveness of a combination treatment of an exon skipping antisense oligonucleotide and an NF-Kb inhibitor in Duchenne muscular dystrophy, M23D PMO and CAT-1004 were utilized in the Mdx mouse model. The effect on inflammation and fibrosis was determined by analyzing samples of muscle taken from the quadriceps, of (1) wild-type mice treated with saline, (2) mdx mice treated with saline, (3) mdx mice treated with CAT-1004, (4) mdx mice treated with the M23D PMO, and (5) mdx mice treated with the M23D PMO in combination with CAT-1004. […]

[2] = tested on: mouse dystrophin exon 23 pre-mRNA; test: RT-PCR analysis for exon 23 skipping in Mdx mice; format: in vivo; details: muscle of quadriceps, diaphragm and heart of Mdx mice; 4 weeks treatment
Source text: (§1) Wild-type (WT) (C57BL/10ScSn/J) and Mdx (C57BL/10ScSn-Dmd^mdx/J) mice were used to test the efficacy of the M23D PMO (AVI-4225) in combination with CAT-1004. 5-week old mice were acquired from Jackson Labs and acclimated for one-week. The treatment duration was 4 weeks and began when the mice were 6 weeks of age. Mice were divided into the following five treatment groups, each with N=12: (1) wild-type mice treated with saline, (2) Mdx mice treated with saline, (3) Mdx mice treated with CAT-1004, (4) Mdx mice treated with the M23D PMO, and (5) Mdx mice treated with the M23D PMO in combination with CAT-1004. Mice were dosed weekly with M23D PMO (AVI-4225) at 40 mg/kg by IV injection and treated with CAT-1004 (1%) in their diet. All non-CAT-1004 animals were fed a normal chow control diet and all non-M23D PMO animals were given weekly IV injections of saline. Food consumption was closely monitored and the feed was changed twice per week. Mice were sacrificed at 10 weeks of age (4 weeks post-first dose). The quadriceps, diaphragm, and heart were harvested from each of the respective treatment groups.
For exon skipping analysis, quadriceps, diaphragm, and heart tissue samples were homogenized. […] Exon 23 skipping was determined by Caliper imaging. […] Percentage of skipping was determined using the formula: % skipping=skipped molarity/(unskipped+skipped molarity)×100%. […]

[3] = tested on: dystrophin protein; test: Western blot analysis of dystrophin protein levels in Mdx mice; format: in vivo, mouse; details: quadriceps, diaphragm and heart of Mdx mice, combination compared to M23D PMO monotherapy
Source text: as §1
Dystrophin protein was analyzed by Western blot analysis, and immunohistochemistry. […] Total protein concentration of the protein lysates were measured using Pierce™ BCA Protein Assay Kit (ThermoFisher Scientific catalog #23225). […]

[4] = phase I clinical program, adults, placebo-controlled studies; cited from earlier work
[5] = tested on: NF-κB; details: cited from earlier work
[6] = tested on: NF-κB p65; details: cited from earlier work
[7] = tested on: golden retriever muscular dystrophy (GRMD) dog; details: cited from earlier work; for phenotype: GRMD dog, long-term treatment; for diaphragm function: dog DMD model
[8] = tested on: Mdx mice; details: cited from earlier work; for inflammation and fibrosis: mdx mice (Hammers et al.); for phenotype: mdx mouse, long-term treatment; for diaphragm function: mouse DMD model (mdx)
[9] = tested on: cNF-κB; details: in vitro; cited from earlier work
[10] = tested on: ryanodine receptor; details: patient cells; cited from earlier work
[11] = tested on: ryanodine receptor; details: mouse model of DMD; cited from earlier work
[12] = cited from earlier work
[13] = tested on: dystrophin; test: Immunohistochemical analysis of dystrophin expression in quadriceps of Mdx mice; format: in vivo, mouse; details: compared to Mdx mice treated with saline or CAT-1004 monotherapy
Source text: as §1
For immunohistochemistry, frozen quadriceps sections were serially cut and mounted on slides using a cryostat. Sections were rehydrated in PBS and then blocked with Mouse on Mouse (MOM) blocking buffer for 1 hour at room temperature. […]

[14] = tested on: exon 51 of dystrophin pre-mRNA; details: normal human skeletal muscle cells or muscle cells from DMD patients; RT-PCR and Western blot; cited from earlier work
[15] = tested on: human DMD transcript; details: hDMD mouse model; cited from earlier work
[16] = tested on: juvenile rats; details: T cell-dependent antibody responses, immunophenotyping of peripheral blood T- and B-cell subpopulations; cited from earlier work

With `CC/C=C\C/C=C\C/C=C\C/C=C\C/C=C\C/C=C\CCC(=O)NCCNC(=O)c1ccccc1O` [CAT-1004, N-(2-[(4Z,7Z,10Z,13Z,16Z,19Z)-docosa-4,7,10,13,16,19-hexaenamido]ethyl)-2-hydroxybenzamide] the “inflammation and fibrosis in quadriceps” value [1] was “reduction of inflammation and fibrosis”, the “exon 23 skipping” value [2] was “neither exon skipping nor dystrophin production were observed” and the dystrophin production [3] was “neither exon skipping nor dystrophin production were observed”. The safety and tolerability [4] was “safe, well tolerated”, the “levels of the p65 subunit of NF-κB” value ([5]; healthy adult humans, compared to placebo or salicylate and omega-3 DHA as separate molecules) was “lowers levels of the p65 subunit of NF-κB” and the “biomarkers of inflammation in whole blood” value ([5]; humans) was “decrease of biomarkers of inflammation”. For the same compound, the “activated NF-κB pathways” value ([5]; phase I clinical program in adults, listed as Edasalonexent) was “inhibited activated NF-kB pathways; also recorded: inhibited activated NF-κB pathways”, the NF-κB activity ([6]; dog model of DMD) was “decreases NF-κB activity” and the “binding of the p65 subunit to DNA” value ([6]; dog model of DMD) was “reduced binding of the p65 subunit to DNA”. For the same compound, the “secretion of the inflammatory mediator TNF-α” value ([6]; dog model of DMD) was “reduced secretion of the inflammatory mediator TNF-α”, the “NF-κB p65-dependent inflammatory responses and downstream proinflammatory genes modulated by p65” value ([6]; golden retriever DMD model) was “significantly inhibit” and the phenotype [7] was “improves the phenotype”. For the same compound, the diaphragm function [7] was “improved diaphragm function”, the inflammation and fibrosis [8] was “reduced inflammation and fibrosis” and the cumulative run distance ([8]; mdx mice, long-term studies) was “increased cumulative run distance”. The exercise endurance ([8]; mdx mice) was “increased exercise endurance”, the “muscle degeneration and inflammation” value ([8]; mdx mice) was “reduce muscle degeneration and inflammation” and the muscle function ([8]; mdx mice) was “preserve muscle function”. The muscle regeneration ([8]; mdx mice) was “enhance muscle regeneration”, the phenotype [8] was “improves the phenotype” and the diaphragm function [8] was “improved diaphragm function”. The cNF-κB activation [9] was “inhibit cNF-κB activation in vitro”.

For `CC/C=C\C/C=C\C/C=C\C/C=C\C/C=C\CCCC(=O)NCCNC(=O)c1ccccc1O` [CAT-1041], the phenotype [7] is listed as “improves the phenotype”, the diaphragm function [7] is listed as “improved diaphragm function” and the inflammation and fibrosis [8] is listed as “reduced inflammation and fibrosis”. The muscle fibrosis ([8]; mdx mice, long-term studies) was “reduces muscle fibrosis”, the skeletal muscle weight ([8]; mdx mice, long-term studies) was “increases skeletal muscle weight” and the exercise endurance ([8]; mdx mice) was “increased exercise endurance”. For the same compound, the muscle function ([8]; mdx mice) was “preserves muscle function”, the phenotype [8] was “improves the phenotype” and the diaphragm function [8] was “improved diaphragm function”. For the same compound, the cNF-κB activation [9] was “inhibit cNF-κB activation in vitro”.

In the case of `O=C1CN(/N=C/c2ccc(-c3ccc([N+](=O)[O-])cc3)o2)C(O)=N1` [dantrolene], the antisense-mediated exon skipping [10] is given as “enhance antisense-mediated exon skipping” and the antisense-mediated exon skipping [11] is given as “enhance antisense-mediated exon skipping”.

For G-2-beta-cyclodextrin, the solubility in water [12] is listed as 147 % (w/v).

With “M23D PMO: PMO hybridizing to mouse dystrophin exon 23 pre-mRNA, TEG tail at 5′ end, sequence GGCCAAACCTCGGCTTACCTGAAAT (SEQ ID NO: 30) (antisense GGCCAAACCTCGGCTTACCTGAAAT; all phosphorodiamidate morpholino (PMO), 5' {TEG})” the “inflammation and fibrosis in quadriceps” value [1] was “reduction of inflammation and fibrosis”, the “exon 23 skipping” value [2] was “Exon skipping was observed” and the “dystrophin expression (immunohistochemistry)” value [13] was “increase in dystrophin expression”.

In the case of eteplirsen, the “exon 51 skipping” value [14] is listed as “potent inducer of exon 51 skipping”, the “exon 51 skipping in vivo” value [15] is listed as “confirmed in vivo” and the “effect on the immune response” value [16] is listed as “no adverse effect on the immune response”.

For triacetyl-beta-cyclodextrin, the “solubility in water (in words)” value [12] is given as “insoluble”.
